# Literature values in patent publication US12471595B2, “Liquid pesticidal composition” (SUMITOMO CHEMICAL COMPANY, LIMITED, priority 2019, dated 2025).
# What was measured:
# [1] = pH7
# [2] = 1-octanol/water
Structure (SMILES),Water solubility at 25° C. [1] [mass ppm],log P at 25° C. [2]
CC(O)(Cn1cncn1)c1ccc(Oc2ccc(Cl)cc2)cc1C(F)(F)F (stereo not shown) [Mefentrifluconazole],0.81,3.4
"CCOC(=O)COc1ncccc1Oc1cc(-n2c(=O)cc(C(F)(F)F)n(C)c2=O)c(F)cc1Cl [Compound A, Ethyl 2-[(3-{2-chloro-4-fluoro-5-[3-methyl-4-(trifluoromethyl)-2,6-dioxo-1,2,3,6-tetrahydropyrimidin-1(2H)-yl]phenoxy}pyridin-2-yl)oxy]acetate]",2.0,3.5
Cc1nnc(Cl)c(-c2c(F)cccc2F)c1-c1ccccc1 [Pyridachlometyl],0.6,4.1
COC(=O)N(OC)c1ccccc1COc1ccn(-c2ccc(Cl)cc2)n1 [Pyraclostrobin],1.9,4.0
CON(C(=O)c1cn(C)nc1C(F)F)C(C)Cc1c(Cl)cc(Cl)cc1Cl (stereo not shown) [Pydiflumetofen],1.5,3.8
